# Measured values from paper PMC10099813, “Stafiba: A STAT5‐Selective Small‐Molecule Inhibitor” (Chembiochem, 2022).
# Tests used:
# [1] = molecular target: T1, STAT5b (Homo sapiens, UniProt P51692); assay: Competitive fluorescence polarization (FP) binding assay, STAT5b SH2 domain; conditions: FP assay; for Ki: Ki calculated from IC50 (n=3) via published equation; for Ki / IC50: 2 % DMSO (10 % DMSO for 10); for IC50: n=3
# T1 sequence (P51692 1-787): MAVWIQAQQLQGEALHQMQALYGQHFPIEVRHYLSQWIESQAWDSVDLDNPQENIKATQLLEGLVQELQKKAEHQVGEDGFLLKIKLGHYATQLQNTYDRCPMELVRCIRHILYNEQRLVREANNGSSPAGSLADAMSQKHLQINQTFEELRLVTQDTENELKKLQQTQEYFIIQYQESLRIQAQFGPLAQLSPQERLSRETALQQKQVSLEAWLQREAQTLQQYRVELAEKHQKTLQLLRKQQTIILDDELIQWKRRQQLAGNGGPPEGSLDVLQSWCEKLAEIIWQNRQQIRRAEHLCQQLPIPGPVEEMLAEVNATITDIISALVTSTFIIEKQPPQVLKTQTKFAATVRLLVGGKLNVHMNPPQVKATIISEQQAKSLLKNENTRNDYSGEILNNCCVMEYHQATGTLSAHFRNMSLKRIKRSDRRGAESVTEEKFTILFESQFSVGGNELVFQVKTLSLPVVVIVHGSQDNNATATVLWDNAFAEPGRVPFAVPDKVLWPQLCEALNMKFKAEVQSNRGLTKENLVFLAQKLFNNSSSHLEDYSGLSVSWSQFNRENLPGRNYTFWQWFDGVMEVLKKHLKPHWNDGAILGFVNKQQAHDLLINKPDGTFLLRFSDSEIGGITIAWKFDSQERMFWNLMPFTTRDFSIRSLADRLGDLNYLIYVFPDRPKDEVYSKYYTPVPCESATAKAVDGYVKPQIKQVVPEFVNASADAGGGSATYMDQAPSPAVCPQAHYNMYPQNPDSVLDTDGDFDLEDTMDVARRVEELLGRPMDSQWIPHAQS
# Method: (§1) Fluorescence polarization assays: Competitive binding assays based on fluorescence polarization were carried out essentially as previously described.[[4a]] Unless stated otherwise, final concentrations of the buffer components were: 10 mM Tris (pH 8.0), 50 mM NaCl, 1 mM EDTA, 1 mM DTT, 0.1 % (v/v) Nonidet P‐40 substitute, and 2 % DMSO. Proteins were used at concentrations which reflect the Kd values of the interactions between the fluoropeptide and the protein preparations. Protein concentrations used for activity analysis of compound 5 were 91 nM for STAT1, 107 nM for STAT3, 28 nM for STAT4, 122 nM for STAT5a, 56 nM for STAT5b and 101 nM for STAT6. Protein concentrations used for activity analysis of AC‐4‐130 were 103 nM for STAT5a and 62 nM for STAT5b. […] Final concentration of all fluorescent‐labelled peptides was 10 nM. The following peptides were used in assays: 5‐carboxyfluorescein‐GpYDKPHVL for STAT1; 5‐carboxyfluorescein‐GpYLPQTV‐NH2 for STAT3; 5‐carboxyfluorescein‐GpYLPQNID for STAT4; 5‐carboxyfluorescein‐GpYLVLDKW for STAT5a/5b, and 5‐carboxyfluorescein‐GpYVPWQDLI for STAT6. Protein and test compounds were incubated for 1 h prior to addition of the fluorescein‐labeled peptide. Fluorescence polarization was measured after another 60 min using an Infinite F500 plate reader (Tecan). IC50 values were converted to Ki‐values using the published equation.[13]
# [2] = molecular target: T2, STAT5a (Homo sapiens, UniProt P42229); assay: Competitive fluorescence polarization (FP) binding assay, STAT5a SH2 domain; conditions: FP assay; for Ki: Ki calculated from IC50 (n=3) via published equation; for Ki / IC50: 2 % DMSO (10 % DMSO for 10); for IC50: n=3 unless stated; for inhibition at 100 µM: the highest concentration tested, read-out: maximum inhibition at 100 µM (STAT5a)
# T2 sequence (P42229 1-794): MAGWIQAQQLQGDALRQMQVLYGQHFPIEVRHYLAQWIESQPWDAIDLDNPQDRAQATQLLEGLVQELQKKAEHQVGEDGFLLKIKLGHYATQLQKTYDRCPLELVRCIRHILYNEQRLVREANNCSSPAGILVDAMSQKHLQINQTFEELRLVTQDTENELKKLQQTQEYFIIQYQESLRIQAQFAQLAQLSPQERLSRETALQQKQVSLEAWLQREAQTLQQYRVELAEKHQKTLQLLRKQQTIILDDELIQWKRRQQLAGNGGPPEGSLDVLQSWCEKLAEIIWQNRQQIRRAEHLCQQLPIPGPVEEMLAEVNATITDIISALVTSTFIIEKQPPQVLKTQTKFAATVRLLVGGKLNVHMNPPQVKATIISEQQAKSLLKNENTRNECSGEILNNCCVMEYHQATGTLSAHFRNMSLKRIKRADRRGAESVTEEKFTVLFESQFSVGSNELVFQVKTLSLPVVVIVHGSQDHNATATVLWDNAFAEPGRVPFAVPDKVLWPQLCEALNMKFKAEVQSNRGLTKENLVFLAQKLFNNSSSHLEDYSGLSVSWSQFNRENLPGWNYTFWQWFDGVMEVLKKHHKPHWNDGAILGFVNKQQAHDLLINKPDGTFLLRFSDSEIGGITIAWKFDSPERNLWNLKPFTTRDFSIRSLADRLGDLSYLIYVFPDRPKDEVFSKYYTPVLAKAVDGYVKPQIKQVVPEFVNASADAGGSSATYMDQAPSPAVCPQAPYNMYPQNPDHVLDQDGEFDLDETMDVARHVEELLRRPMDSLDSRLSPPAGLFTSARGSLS
# Method: as §1
# [3] = Solubility as observed during synthesis / stock preparation; assay type: physicochemical; conditions: remark on synthesis
Structure (SMILES),Ki [1] [µM],IC50 [1] [µM],Ki [2] [µM],IC50 [2] [µM],inhibition at 100 µM [2] [%],increase of activity against STAT5b relative to resorcinol bisphosphate (1) ([1]; ratio of Ki values) [fold],increase of activity against STAT5a relative to resorcinol bisphosphate (1) ([2]; ratio of Ki values) [fold],solubility of the final product [3],"inhibition at 100 µM ([1]; 100 µM, read-out: maximum inhibition at 100 µM (STAT5b)) [%]"
"O=P(O)(O)Oc1cccc(OP(=O)(O)O)c1 [compound 1, 1,3-Phenylene bis(dihydrogen phosphate)]",20.4 ± 0.7,41.6 ± 1.4,23.3 ± 4.9,47.2 ± 9.9,–,–,–,–,–
CC(=O)NCc1ccc(OP(=O)(O)O)cc1OP(=O)(O)O [compound 2],42.1 ± 1.6,85.7 ± 3.2,–,–,50 ± 3,–,–,–,–
O=P(O)(O)Oc1ccc(F)c(OP(=O)(O)O)c1 [compound 6],27.4 ± 2.8,55.8 ± 5.6,29.4 ± 0.6,59.4 ± 1.2,–,–,–,–,–
O=P(O)(O)C(F)(F)c1cccc(C(F)(F)P(=O)(O)O)c1F [compound 9],18.9 ± 1.5,38.4 ± 3,15 ± 0.6,30.7 ± 1.3,–,–,–,–,–
O=C(COc1ccc(C(=O)Nc2ccc(Oc3ccccc3)cc2)cc1)NCc1cc(OP(=O)(O)O)cc(OP(=O)(O)O)c1 [compound 4],0.9 ± 0.1,1.9 ± 0.3,2.5 ± 0.5,5.2 ± 1,–,23,9,limited solubility,–
O=P(O)(O)Cc1cccc(CP(=O)(O)O)c1F [compound 8],–,–,–,–,12 ± 3,–,–,–,14 ± 1
CC(=O)NCc1cc(OP(=O)(O)O)cc(OP(=O)(O)O)c1 [compound 3],18.7 ± 0.8,38.1 ± 1.6,36.4 ± 3.8,73.8 ± 7.7,–,–,–,–,–
O=P(O)(O)Oc1cccc(OP(=O)(O)O)c1F [compound 7],7.6 ± 0.4,15.5 ± 0.8,10.8 ± 0.5,21.8 ± 0.9,–,–,–,–,–
